Results published in PubChem BioAssay AID276 (DTP/NCI, 2004).
“And” between values parts separate entries of the source, which are not always exact repeats. Equal entries are not always repeated. Toxic doses and inconclusive results are not listed. The calls were made as follows: active = survival T/C of 150% or more; inactive = T/C below 125% in these data.

System: B6C3F1 mice, Lewis lung carcinoma iv, survival T/C
Assay: NCI In Vivo Anticancer Drug Screen. Data for tumor model Lewis Lung Carcinoma (intravenous) in B6C3F1 mice
Settings: endpoint: median survival time, schedule: Q01DX009 (ip), higher = longer survival
How it was run: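 Antitumor activity is assessed in tumor-bearing mice by comparing survival after compound treatment against vehicle-treated controls, reported as a T/C ratio.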

[1] = dose: 12.5 mg/kg/injection, vehicle: saline
[2] = dose: 25.0 mg/kg/injection, vehicle: saline
[3] = dose: 50.0 mg/kg/injection, vehicle: saline
[4] = dose: 1.56 mg/kg/injection, vehicle: saline with Tween-80
[5] = dose: 3.12 mg/kg/injection, vehicle: saline with Tween-80
[6] = dose: 6.25 mg/kg/injection, vehicle: saline with Tween-80
[7] = dose: 12.5 mg/kg/injection, vehicle: saline with Tween-80
[8] = dose: 1.0 mg/kg/injection, vehicle: saline
[9] = dose: 100.0 mg/kg/injection, vehicle: saline
[10] = dose: 200.0 mg/kg/injection, vehicle: saline
[11] = dose: 400.0 mg/kg/injection, vehicle: saline
[12] = dose: 12.5 mg/kg/injection, vehicle: Klucel (hydroxypropylcellulose) (HPC)
[13] = dose: 25.0 mg/kg/injection, vehicle: Klucel (hydroxypropylcellulose) (HPC)
[14] = dose: 50.0 mg/kg/injection, vehicle: Klucel (hydroxypropylcellulose) (HPC)
[15] = dose: 100.0 mg/kg/injection, vehicle: Klucel (hydroxypropylcellulose) (HPC)
[16] = dose: 25.0 mg/kg/injection, vehicle: saline with Tween-80
[17] = dose: 50.0 mg/kg/injection, vehicle: saline with Tween-80
[18] = dose: 1.5 mg/kg/injection, vehicle: saline with Tween-80
[19] = dose: 3.0 mg/kg/injection, vehicle: saline with Tween-80
[20] = dose: 200.0 mg/kg/injection, vehicle: Klucel (hydroxypropylcellulose) (HPC)
[21] = dose: 16.0 mg/kg/injection, vehicle: saline with Tween-80
[22] = dose: 32.0 mg/kg/injection, vehicle: saline with Tween-80
[23] = dose: 64.0 mg/kg/injection, vehicle: saline with Tween-80
[24] = dose: 128.0 mg/kg/injection, vehicle: saline with Tween-80
[25] = dose: 3.12 mg/kg/injection, vehicle: saline

Measured: T/C

CCC(C(=O)O)C(=O)O.[NH-]CC1CCCC[N-]1.[Pt+2]
inactive: [1] 105 % of control | dose: 12.5 mg/kg/injection, vehicle: suspension in saline 103 % of control | [2] 106 % of control | dose: 25.0 mg/kg/injection, vehicle: suspension in saline 104 % of control | [3] 113 % of control | dose: 50.0 mg/kg/injection, vehicle: suspension in saline 116 % of control | dose: 100.0 mg/kg/injection, vehicle: suspension in saline 123 % of control

C=C1C(=O)OC2CC(C)C3C4OC4C(O)C3(C)C(O)C12 (configuration not stated)
inactive: dose: 5.62 mg/kg/injection, vehicle: saline 100 % of control | dose: 11.25 mg/kg/injection, vehicle: saline 102 % of control | dose: 22.5 mg/kg/injection, vehicle: saline 100 % of control | dose: 45.0 mg/kg/injection, vehicle: saline 108 % of control | dose: 90.0 mg/kg/injection, vehicle: saline 105 % of control

Nc1n[n+](-c2ccccc2)no1
inactive: dose: 3.13 mg/kg/injection, vehicle: water 108 % of control | dose: 6.25 mg/kg/injection, vehicle: water 100 % of control | dose: 12.5 mg/kg/injection, vehicle: water 113 % of control | dose: 25.0 mg/kg/injection, vehicle: water 114 % of control

CCc1nc(N)nc(N)c1-c1ccc(Cl)c([N+](=O)[O-])c1
inactive: [4] 104 % of control | [5] 105 % of control | [6] 104 % of control | [7] 105 % of control

Cc1c(N)nc(C(CC(N)=O)NCC(N)C(N)=O)nc1C(=O)NC(C(=O)NC(C)C(O)CC(=O)NC(C(=O)NC(OC1OC(C)C(N)C(O)C1O)C(O)c1nc(-c2nc(C(=O)NCCCC(N)CC(=O)NCCCNCCCCN)cs2)cs1)C(C)O)C(OC1OC(CO)C(O)C(O)C1OC1OC(CO)C(O)C(OC(N)=O)C1O)c1cnc[nH]1 (configuration not stated)
inactive: [8] 124 % of control | dose: 2.0 mg/kg/injection, vehicle: saline 123 % of control

OCC12COCN1COC2
inactive: [1] 103 % of control and 104 % of control | [2] 98 % of control and 101 % of control | [3] 100 % of control and 106 % of control | [9] 97 % of control and 102 % of control | [10] 98 % of control | [11] 104 % of control and 112 % of control

Cc1cc(Nc2ccc3c(c2)OCO3)c2cc3c(cc2n1)OCO3
inactive: [12] 100 % of control | [13] 98 % of control | [14] 98 % of control and 104 % of control | [15] 101 % of control

CN=S(=O)(OCCCCCOS(=O)(=NC)c1ccccc1)c1ccccc1 (configuration not stated)
inactive: [5] 101 % of control | [6] 105 % of control | [7] 118 % of control | [16] 108 % of control | [17] 122 % of control

CC(=O)OCC1OC([S-])C(OC(C)=O)C(OC(C)=O)C1OC(C)=O.CC[PH+](CC)CC.CC[PH+](CC)CC.[Au].[Au] (configuration not stated)
inactive: dose: 0.62 mg/kg/injection, vehicle: Klucel (hydroxypropylcellulose) (HPC) 91 % of control and 104 % of control | dose: 1.25 mg/kg/injection, vehicle: Klucel (hydroxypropylcellulose) (HPC) 98 % of control and 106 % of control | dose: 2.5 mg/kg/injection, vehicle: Klucel (hydroxypropylcellulose) (HPC) 100 % of control and 109 % of control | dose: 5.0 mg/kg/injection, vehicle: Klucel (hydroxypropylcellulose) (HPC) 101 % of control | dose: 10.0 mg/kg/injection, vehicle: Klucel (hydroxypropylcellulose) (HPC) 102 % of control and 104 % of control

COc1cccc2c1C(=O)c1c(O)c3c(c(O)c1C2=O)C[C@@](O)(C(C)=O)C[C@@H]3OC1CC(N(Cc2ccccc2)Cc2ccccc2)C(O)C(C)O1 (some centres not stated)
inactive: [18] 104 % of control | dose: 1.5 mg/kg/injection, vehicle: water 96 % of control | [4] 103 % of control | [19] 112 % of control | dose: 3.0 mg/kg/injection, vehicle: water 99 % of control | [5] 114 % of control | dose: 6.0 mg/kg/injection, vehicle: saline with Tween-80 113 % of control | [6] 112 % of control and 116 % of control

COC(=O)Nc1cn2ccc(C(Cl)=C(Cl)Cl)cc2n1
inactive: [15] 116 % of control | [20] 103 % of control

COC(=O)C[C@](O)(CCC(C)(C)O)C(=O)O[C@@H]1C(OC)=C[C@]23CCCN2CCc2cc4c(cc2[C@H]13)OCO4
inactive: dose: 0.25 mg/kg/injection, vehicle: saline 98 % of control and 104 % of control | dose: 0.5 mg/kg/injection, vehicle: saline 103 % of control and 106 % of control | [8] 94 % of control and 102 % of control

Cc1cc2c(C(C)C)c(O)c(O)c(C=O)c2c(O)c1-c1c(C)cc2c(C(C)C)c(O)c(O)c(C=O)c2c1O
inactive: dose: 0.37 mg/kg/injection, vehicle: saline with Tween-80 101 % of control | dose: 0.75 mg/kg/injection, vehicle: saline with Tween-80 101 % of control | [18] 105 % of control | [19] 106 % of control

O=Cc1c(O)c2ccccc2[nH]c1=O
inactive: [6] 107 % of control | [7] 105 % of control | [16] 113 % of control | [17] 107 % of control | dose: 100.0 mg/kg/injection, vehicle: saline with Tween-80 116 % of control

S=C(Nc1ccc(Cl)c(Cl)c1)N1c2ccccc2-n2cccc2C1c1cccnc1 (configuration not stated)
inactive: [12] 106 % of control | [13] 109 % of control | [14] 98 % of control | [15] 102 % of control | [20] 113 % of control

Cc1c(O)ccc(=O)n1O
inactive: [21] 101 % of control | [22] 99 % of control | [23] 103 % of control | [24] 89 % of control

O=S1(=O)C=C(c2ccccc2)C(c2ccccc2)=C1
inactive: [5] 101 % of control | [6] 89 % of control | [7] 101 % of control | [16] 110 % of control

CSC(SC)=C1C(=O)NC(=O)NC1=O
inactive: [25] 103 % of control | dose: 6.25 mg/kg/injection, vehicle: saline 105 % of control | [1] 96 % of control | [2] 112 % of control

COc1cc(Cc2nccc3cc(OC)c(OC)cc23)c(C(C)=O)cc1OC
inactive: [12] 98 % of control | [13] 120 % of control | [14] 106 % of control | [15] 101 % of control

C(=N/NC1=NCCN1)/c1c2ccccc2c(/C=N\NC2=NCCN2)c2ccccc12
inactive: [25] 110 % of control | [1] 100 % of control | [2] 100 % of control

C[Si](C)(C)O/C=C1/CCOC1=O
inactive: [1] 93 % of control | [2] 101 % of control | [3] 94 % of control | [9] 97 % of control | [10] 91 % of control | [11] 94 % of control

CNC(=O)Oc1ccc[nH]c1=O
inactive: [21] 101 % of control | [22] 103 % of control | [23] 104 % of control | [24] 90 % of control | dose: 256.0 mg/kg/injection, vehicle: saline with Tween-80 94 % of control

CN(C)c1ccc2c(SCC(=O)OCC(=O)[C@@]3(O)CC[C@H]4[C@@H]5CCC6=CC(=O)C=C[C@]6(C)[C@H]5C(=O)C[C@@]43C)c3ccc(N(C)C)cc3nc2c1
inactive: [20] 94 % of control | dose: 400.0 mg/kg/injection, vehicle: Klucel (hydroxypropylcellulose) (HPC) 99 % of control | dose: 800.0 mg/kg/injection, vehicle: Klucel (hydroxypropylcellulose) (HPC) 101 % of control
